According to ChEMBL document CHEMBL1201862, “PubChem BioAssay data set” (2004):
Active and inactive are the calls of the source. Cut-off read from the data, not from the text of the source, for most assays here: actives have a measured IC50 and inactives only a lower limit.

Key:
[1] = molecular target: Dual specificity protein kinase CLK1 (Homo sapiens, UniProt P49759); experiment: inhibition of human CLK1 activity – biochemical, cherry-picked samples, selectivity assay for Dyrk1A inhibitor project, dose response (AID 588811)
[2] = molecular target: Dual specificity tyrosine-phosphorylation-regulated kinase 1A (Rattus norvegicus, UniProt Q63470); format: biochemical, Homo sapiens
Interleukin-8 = molecular target: T1, Interleukin-8 (Homo sapiens, UniProt P10145); experiment: Dose Response confirmation of uHTS small molecule hits for cystic fibrosis induced NFkb Inhibitors in a PAF-induced IL8 counterscreen.; format: functional; conditions: read-out: IC50_Mean
T1 sequence (P10145 whole entry): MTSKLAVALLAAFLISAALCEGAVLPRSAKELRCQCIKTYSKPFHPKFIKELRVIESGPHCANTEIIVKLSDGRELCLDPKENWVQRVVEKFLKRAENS

Caspase-3 [3] = molecular target: T2, Caspase-3 (Homo sapiens, UniProt P42574); experiment: inhibition of recombinant caspase-3 activity – biochemical, luminescence, set 2, selectivity assay for SENP protease inhibitor project, SAR follow-up (AID 588599); format: functional
T2 sequence (P42574 whole entry): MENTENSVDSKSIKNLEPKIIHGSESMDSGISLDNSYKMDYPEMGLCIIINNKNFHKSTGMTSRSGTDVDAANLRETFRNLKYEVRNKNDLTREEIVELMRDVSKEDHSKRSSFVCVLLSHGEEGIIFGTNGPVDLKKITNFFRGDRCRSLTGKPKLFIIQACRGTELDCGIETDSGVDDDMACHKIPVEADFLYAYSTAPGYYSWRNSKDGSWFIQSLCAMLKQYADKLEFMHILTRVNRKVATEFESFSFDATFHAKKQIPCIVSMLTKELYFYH

[4] = molecular target: T3, Sentrin-specific protease 8 (Homo sapiens, UniProt Q96LD8); experiment: inhibition of sentrin protease 8 – biochemical, luminescence, set 2, SAR follow-up (AID 588601); format: functional
T3 sequence (Q96LD8 whole entry): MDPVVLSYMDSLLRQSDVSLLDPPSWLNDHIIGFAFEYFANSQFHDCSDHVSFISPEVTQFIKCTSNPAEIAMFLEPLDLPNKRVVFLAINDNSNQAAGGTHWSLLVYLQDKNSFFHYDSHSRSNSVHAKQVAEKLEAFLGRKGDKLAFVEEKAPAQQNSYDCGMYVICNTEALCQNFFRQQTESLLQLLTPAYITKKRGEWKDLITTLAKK

[5] = molecular target: T4, Sentrin-specific protease 7 (Homo sapiens, UniProt Q9BQF6); experiment: inhibition of human SENP7 cleavage activity – biochemical, luminescence, set 2, SAR follow-up (AID 588600); format: functional
T4 sequence (Q9BQF6 whole entry): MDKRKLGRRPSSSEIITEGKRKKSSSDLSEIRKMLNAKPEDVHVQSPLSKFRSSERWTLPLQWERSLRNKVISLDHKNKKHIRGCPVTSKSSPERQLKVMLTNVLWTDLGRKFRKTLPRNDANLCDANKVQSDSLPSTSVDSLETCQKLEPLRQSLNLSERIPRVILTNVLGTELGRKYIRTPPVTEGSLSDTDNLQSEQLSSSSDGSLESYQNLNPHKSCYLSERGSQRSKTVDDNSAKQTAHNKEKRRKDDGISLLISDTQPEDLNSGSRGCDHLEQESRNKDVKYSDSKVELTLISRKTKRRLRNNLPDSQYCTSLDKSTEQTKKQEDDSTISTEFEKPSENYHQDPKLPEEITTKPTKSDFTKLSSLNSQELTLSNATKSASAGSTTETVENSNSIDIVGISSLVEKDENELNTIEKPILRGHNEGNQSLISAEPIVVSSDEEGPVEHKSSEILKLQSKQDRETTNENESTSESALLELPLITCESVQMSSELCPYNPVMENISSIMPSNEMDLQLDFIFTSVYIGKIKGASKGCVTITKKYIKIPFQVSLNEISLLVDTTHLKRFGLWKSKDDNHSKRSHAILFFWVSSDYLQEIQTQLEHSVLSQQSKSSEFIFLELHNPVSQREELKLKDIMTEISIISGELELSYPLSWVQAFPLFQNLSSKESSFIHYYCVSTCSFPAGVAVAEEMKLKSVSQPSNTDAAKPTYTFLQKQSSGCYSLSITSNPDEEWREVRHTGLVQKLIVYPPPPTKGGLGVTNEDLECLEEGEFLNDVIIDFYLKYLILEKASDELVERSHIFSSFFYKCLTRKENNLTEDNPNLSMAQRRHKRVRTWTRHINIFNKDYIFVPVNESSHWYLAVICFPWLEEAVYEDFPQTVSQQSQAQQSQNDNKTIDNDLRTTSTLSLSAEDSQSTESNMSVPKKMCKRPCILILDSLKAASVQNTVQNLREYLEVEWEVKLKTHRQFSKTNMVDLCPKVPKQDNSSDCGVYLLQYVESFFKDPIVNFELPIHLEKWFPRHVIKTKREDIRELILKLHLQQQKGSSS

[6] = molecular target: T5, Sentrin-specific protease 6 (Homo sapiens, UniProt Q9GZR1); experiment: inhibition of human SENP6 catalytic domain – biochemical, luminescence, set 2, SAR follow-up (AID 588598); format: functional
T5 sequence (Q9GZR1 whole entry): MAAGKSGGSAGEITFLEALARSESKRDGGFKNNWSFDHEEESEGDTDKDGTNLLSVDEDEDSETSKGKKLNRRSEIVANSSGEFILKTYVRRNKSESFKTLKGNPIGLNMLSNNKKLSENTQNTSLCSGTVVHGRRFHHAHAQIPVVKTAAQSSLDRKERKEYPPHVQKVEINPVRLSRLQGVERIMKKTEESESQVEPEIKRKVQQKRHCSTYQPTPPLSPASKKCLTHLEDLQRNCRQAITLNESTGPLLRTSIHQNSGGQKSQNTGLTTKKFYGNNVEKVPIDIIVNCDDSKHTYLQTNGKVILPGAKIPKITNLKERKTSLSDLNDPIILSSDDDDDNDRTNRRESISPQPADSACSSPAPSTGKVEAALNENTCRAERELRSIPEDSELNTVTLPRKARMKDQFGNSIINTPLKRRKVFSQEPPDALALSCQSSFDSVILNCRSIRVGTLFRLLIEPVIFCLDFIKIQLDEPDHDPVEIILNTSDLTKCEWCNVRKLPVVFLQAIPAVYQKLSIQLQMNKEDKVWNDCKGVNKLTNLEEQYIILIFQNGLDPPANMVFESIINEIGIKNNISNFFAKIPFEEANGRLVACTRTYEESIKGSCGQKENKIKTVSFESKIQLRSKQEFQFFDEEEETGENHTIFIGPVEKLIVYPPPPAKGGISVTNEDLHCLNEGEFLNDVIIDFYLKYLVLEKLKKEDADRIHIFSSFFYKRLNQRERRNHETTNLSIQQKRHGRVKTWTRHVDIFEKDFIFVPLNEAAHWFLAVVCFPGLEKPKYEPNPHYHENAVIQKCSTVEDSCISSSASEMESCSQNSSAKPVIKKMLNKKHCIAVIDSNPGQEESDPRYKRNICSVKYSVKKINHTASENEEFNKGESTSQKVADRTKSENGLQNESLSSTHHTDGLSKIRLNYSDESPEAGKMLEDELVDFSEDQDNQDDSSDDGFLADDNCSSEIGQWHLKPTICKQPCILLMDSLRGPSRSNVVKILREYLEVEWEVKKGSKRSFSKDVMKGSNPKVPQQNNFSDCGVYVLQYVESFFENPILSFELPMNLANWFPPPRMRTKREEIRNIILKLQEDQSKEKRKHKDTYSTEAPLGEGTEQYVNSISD

[7] = molecular target: T3, Sentrin-specific protease 8; experiment: inhibition of human SENP8 cleavage activity – biochemical, luminescence, SAR follow-up (AID 504501); format: functional
Caspase-3 [8] = molecular target: T2, Caspase-3; experiment: SAR Analysis of small molecule inhibitors of Sentrin-specific proteases (SENPs) using a Caspase-3 Selectivity assay. [Related pubchem assays (depositor defined):AID2540, AID2599, AID434973, AID489001]; format: functional
[9] = molecular target: T5, Sentrin-specific protease 6; experiment: SAR Analysis of small molecule inhibitors of Sentrin-specific protease 6 (SENP6) using a Luminescent assay. [Related pubchem assays (depositor defined):AID2582, AID2599]; format: functional
[10] = molecular target: T4, Sentrin-specific protease 7; experiment: inhibition of human SENP7 cleavage activity – biochemical, luminescence, SAR follow-up (AID 504497); format: functional

Dual specificity protein kinase CLK1, sequence (P49759 whole entry): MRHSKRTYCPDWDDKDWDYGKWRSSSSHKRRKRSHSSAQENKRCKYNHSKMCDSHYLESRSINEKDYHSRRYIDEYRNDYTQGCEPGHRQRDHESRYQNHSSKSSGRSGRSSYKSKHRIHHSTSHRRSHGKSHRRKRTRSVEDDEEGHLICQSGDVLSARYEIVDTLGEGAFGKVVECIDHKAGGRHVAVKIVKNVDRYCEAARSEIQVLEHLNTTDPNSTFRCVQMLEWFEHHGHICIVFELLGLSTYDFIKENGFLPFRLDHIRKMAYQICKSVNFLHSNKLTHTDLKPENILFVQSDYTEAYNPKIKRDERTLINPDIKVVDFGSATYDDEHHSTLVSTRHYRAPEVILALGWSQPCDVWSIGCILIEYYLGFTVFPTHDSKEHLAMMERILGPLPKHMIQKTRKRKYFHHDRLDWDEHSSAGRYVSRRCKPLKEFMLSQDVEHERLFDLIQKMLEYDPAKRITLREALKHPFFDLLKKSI

AC50 [1] | AC50 [2] | IC50 (Interleukin-8) | IC50 (Caspase-3 [3]) | IC50 [5] | IC50 [6] | IC50 (Caspase-3 [8]) | IC50 [9] | IC50 [10] | Structure (SMILES) | IC50 [4] | IC50 [7]
190 nM (active) | 811 nM (active) | 10500 nM (inactive) | – | – | – | – | – | – | CC1Cc2ccccc2N1c1ncnc2nc[nH]c12 (configuration not stated) | – | –
– | – | – | > 99000 nM (inactive) | > 99000 nM (inactive) | > 99000 nM (inactive) | – | – | – | CCN(C(=O)c1cc(S(=O)(=O)N(CC)CC)ccc1C)c1nc2ccccc2s1 | > 99000 nM (inactive) | –
3940 nM (active) | 4910 nM (active) | – | – | – | – | – | – | – | COc1cccc(Nc2ncnc3ccccc23)c1 | – | –
– | – | – | 1010 nM (active) | 1540 nM (active) | 1490 nM (active) | 900 nM (active) | 2100 nM (active) | 1400 nM (active) | O=C(Nc1nc2ccccc2s1)c1nccs1 | 1550 nM (active) | 2100 nM (active)
